The numbers were not newly measured in patent US20180140572A1, “COMPOSITIONS COMPRISING A CANCER STEMNESS INHIBITOR AND AN IMMUNOTHERAPEUTIC AGENT FOR USE IN TREATING CANCER” (Boston Biomedical, Inc., priority 2015, published 2018), which cites them from elsewhere.

For this data set, the system named is microsatellite stable (MSS) metastatic colorectal cancer (mCRC). The note with it: patients with MSS mCRC, cited from earlier work.

As for “pembrolizumab: immunotherapeutic agent that binds to PD-1”, the disease control rate was 11%, the effectiveness entry is “not effective”, the “immune-related objective response rate” value was 0% and the response rate is reported as 0%. Further, for the setting “20 weeks”, the “immune-related progression-free survival at 20 weeks” value is 11%.
